Measurements as given in paper PMC3352823, “In Vitro and In Vivo Activity of a Palladacycle Complex on Leishmania (Leishmania) amazonensis” (PLoS Neglected Tropical Diseases, 2012).

Test system: T1, L. (L.) amazonensis cathepsin B
T1 construct: gene CPC; native enzyme in amastigote lysate (hamster lesion amastigotes), not purified; activity defined by cathepsin B substrate and CA074
Format: biochemical, Leishmania amazonensis
Conditions: substrate Abz-Gly-Ile-Val-Arg-Ala-Lys(Dnp)-OH 10 µM; pH 5.0, 37 °C, 2 mM DTT

IC50: 700 ± 80 nM
SMILES: CCCNC(=O)[C@H]1O[C@@H]1C(=O)N[C@H](C(=O)N1CCC[C@H]1C(=O)O)[C@@H](C)CC [CA074]
